IC50 data for 26 compounds are collected here from patent publication US11591326B2, “Inhibitors of protein arginine methyltransferase 5 (PRMT5), pharmaceutical products thereof, and methods thereof” (PHARMABLOCK SCIENCES (NANJING), INC., priority 2018, dated 2023).

Molecules are shown by their SMILES. pIC50: −log10 of the molar value.

Chain of Human recombinant PRMT5 in complex with human recombinant MEP50 (O14744 whole entry): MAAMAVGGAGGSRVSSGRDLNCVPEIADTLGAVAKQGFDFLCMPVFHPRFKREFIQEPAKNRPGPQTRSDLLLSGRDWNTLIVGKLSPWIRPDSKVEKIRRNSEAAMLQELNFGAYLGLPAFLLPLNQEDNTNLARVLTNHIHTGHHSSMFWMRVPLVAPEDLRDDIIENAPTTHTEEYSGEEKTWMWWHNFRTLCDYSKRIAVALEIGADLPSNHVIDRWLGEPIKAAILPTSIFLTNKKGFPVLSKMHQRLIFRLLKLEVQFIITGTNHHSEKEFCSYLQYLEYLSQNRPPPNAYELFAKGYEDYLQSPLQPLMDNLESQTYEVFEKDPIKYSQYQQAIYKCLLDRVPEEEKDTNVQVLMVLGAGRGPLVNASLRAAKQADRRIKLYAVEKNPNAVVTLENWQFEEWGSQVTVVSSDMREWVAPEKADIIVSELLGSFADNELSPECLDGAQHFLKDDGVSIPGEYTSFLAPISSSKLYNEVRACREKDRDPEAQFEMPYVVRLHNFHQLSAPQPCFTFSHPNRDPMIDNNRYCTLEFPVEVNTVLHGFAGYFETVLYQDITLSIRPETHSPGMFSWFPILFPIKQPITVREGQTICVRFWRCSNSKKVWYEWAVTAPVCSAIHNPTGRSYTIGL
Chain of Human recombinant PRMT5 in complex with human recombinant MEP50 (Q9BQA1 whole entry partner): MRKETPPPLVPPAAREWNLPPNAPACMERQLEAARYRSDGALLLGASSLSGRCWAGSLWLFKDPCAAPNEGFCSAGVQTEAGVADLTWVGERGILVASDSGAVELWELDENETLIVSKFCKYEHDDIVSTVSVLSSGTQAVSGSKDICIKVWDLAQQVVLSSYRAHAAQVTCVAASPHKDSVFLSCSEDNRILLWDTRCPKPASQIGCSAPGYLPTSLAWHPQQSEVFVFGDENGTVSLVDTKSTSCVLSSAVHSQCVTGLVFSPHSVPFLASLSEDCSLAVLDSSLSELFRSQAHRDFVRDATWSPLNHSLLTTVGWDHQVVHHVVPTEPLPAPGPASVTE

This experiment deals with Human recombinant PRMT5 in complex with human recombinant MEP50 (Homo sapiens (Human), UniProt O14744). Kind of experiment: PRMT5/MEP50 AlphaLISA enzyme inhibitory assay. Type of experiment: biochemical. To be noted: PRMT5/MEP50 25 nM, SAM 10 μM, Biotin-H4 peptide 30 nM. The source says:
Human recombinant PRMT5 in complex with human recombinant MEP50, co-expressed in an insect cell/baculovirus expression system was purchased from Reaction Biology (Malvern, Pa.). […] Anti-H4R3-Me AlphaLISA acceptor beads and Streptavidin labeled AlphaLISA donor beads were obtained from PerkinElmer (Waltham, Mass.). S-adenosylmethionine (SAM), Tween20, dimethylsulfoxide (DMSO), and Tris buffer were obtained from Sigma at the highest level of purity available.
General Procedure for PRMT5/MEP50 AlphaLISA Enzyme Inhibitory Assays: Assays were performed in the buffer consisting of 50 mM Tris, pH 8.5, 5 mM MgCl2, 50 mM NaCl with 0.01% Tween20 and 1 mM DTT added right before the assay. 2.5 μL of compound solution in the assay buffer with 4% DMSO and 5 μL of PRMT5/MRP50 complex/SAM mixture solution in the assay buffer which was pre-incubated for 30 minutes were added into a white low volume 384 well microtiter plate. This mixture solution was incubated for 15 minutes with gentle shaking at room temperature. Methyl transfer reaction was initiated by adding 2.5 μL of Biotin-H4 (1-21) peptide substrate solution in the assay buffer. Final concentrations of PRMT5/MEP50, SAM, Biotin-H4 peptide substrate, and DMSO were 25 nM, 10 μM, 30 nM, and 1%, respectively. The reaction was allowed to perform for 120 minutes in dark with gentle shaking at room temperature after which 5 μL of Anti-H4R3-Me AlphaLISA acceptor beads in detection buffer from the manufacturer was added into the reaction mixture followed by incubation for 60 minutes. 10 μL of Streptavidin labeled AlphaLISA donor beads in detection buffer was added into the mixture followed by 30 minute incubation. Final acceptor and donor beads concentrations were 10 μg/mL. Plates were read on an Envision multimode plate reader from PerkinElmer (Waltham Mass., USA) with an excitation wavelength of 680 nm and emission wavelength of 615 nm. IC50 values of inhibitors were obtained by fitting the fluorescence intensity vs inhibitor concentrations in a sigmoidal dose-response curve (variable slopes, four parameters) using Prism 7 (La Jolla, Calif.).
In general terms: In Alpha technology, singlet oxygen from a donor bead excites a nearby acceptor bead.
The term pIC50 denotes the negative decadic logarithm of the IC50, by convention in mol/L. Turning to `O=C1c2cc(Nc3ccncn3)ccc2OCCN1C[C@H](O)CN1CCc2ccccc2C1` [Compound 37, (R)-4-(3-(3,4-dihydroisoquinolin-2(1H)-yl)-2-hydroxypropyl)-7-(pyrimidin-4-ylamino)-3,4-dihydrobenzo[f][1,4]oxazepin-5(2H)-one], the negative logarithm of the IC50 (pIC50) was 8.00.

`Cn1cc(Nc2ccc3c(c2)C(=O)N(C[C@@H](O)CN2CCc4ccccc4C2)CCO3)cn1` [Compound 29b, (S)-4-(3-(3,4-dihydroisoquinolin-2(1H)-yl)-2-hydroxypropyl)-7-((1-methyl-1H-pyrazol-4-yl)amino)-3,4-dihydrobenzo[f][1,4]oxazepin-5(2H)-one]: the pIC50 was 6.90.

As to `O=C1c2cc(N[C@@H]3CCOC3)ccc2CCN1C[C@@H](O)CN1CCc2ccccc2C1` [Compound 11, 2-((S)-3-(3,4-dihydroisoquinolin-2(1H)-yl)-2-hydroxypropyl)-7-(((R)-tetrahydrofuran-3-yl)amino)-3,4-dihydroisoquinolin-1(2H)-one], the negative-log IC50 (pIC50) was 6.34.

`O=C1c2cc(Nc3ccnnc3)ccc2CCN1C[C@@H](O)CN1CCc2ccccc2C1` [Compound 28b, (S)-2-(3-(3,4-dihydroisoquinolin-2(1H)-yl)-2-hydroxypropyl)-7-(pyridazin-4-ylamino)-3,4-dihydroisoquinolin-1(2H)-one]: the pIC50 was 6.53.

Consider `Cn1cc(Nc2ccc3c(c2)C(=O)N(CC(O)CN2CCc4ccccc4C2)CC3)cn1` (centres unmarked) [Compound 12], for which the negative-log IC50 (pIC50) is 7.54.

As for `CC1(C)CN(CC(O)CN2CCc3ccccc3C2)C(=O)c2cc(Nc3ccnnc3)ccc21` (centres unmarked) [Compound 34, 2-(3-(3,4-dihydroisoquinolin-2(1H)-yl)-2-hydroxypropyl)-4,4-dimethyl-7-(pyridazin-4-ylamino)-3,4-dihydroisoquinolin-1(2H)-one], the pIC50 is 7.80.

Regarding `CN1CC(Nc2ccc3c(c2)C(=O)N(C[C@@H](O)CN2CCc4ccccc4C2)CC3)C1` [Compound 9, (S)-2-(3-(3,4-dihydroisoquinolin-2(1H)-yl)-2-hydroxypropyl)-7-((1-methylazetidin-3-yl)amino)-3,4-dihydroisoquinolin-1(2H)-one], the pIC50 was 5.61.

Take `CS(=O)(=O)N1CC(Nc2ccc3c(c2)C(=O)N(C[C@@H](O)CN2CCc4ccccc4C2)CC3)C1` [Compound 8, (S)-2-(3-(3,4-dihydroisoquinolin-2(1H)-yl)-2-hydroxypropyl)-7-((1-(methylsulfonyl)azetidin-3-yl)amino)-3,4-dihydroisoquinolin-1(2H)-one]: the negative-log IC50 (pIC50) is 6.63.

`O=C1c2cc(N[C@H]3CCOC3)ccc2CCN1C[C@@H](O)CN1CCc2ccccc2C1` [Compound 10, 2-((S)-3-(3,4-dihydroisoquinolin-2(1H)-yl)-2-hydroxypropyl)-7-(((S)-tetrahydrofuran-3-yl)amino)-3,4-dihydroisoquinolin-1(2H)-one]: the negative-log IC50 (pIC50) is 5.99.

`O=C1c2cc(Nc3ccnnc3)cc(F)c2OCCN1CC(O)CN1CCc2ccccc2C1` (centres unmarked) [Compound 51, 4-(3-(3,4-dihydroisoquinolin-2(1H)-yl)-2-hydroxypropyl)-9-fluoro-7-(pyridazin-4-ylamino)-3,4-dihydrobenzo[f][1,4]oxazepin-5(2H)-one]: the pIC50 was 8.19.

As to `CN1C(=O)CN(CC(O)CN2CCc3ccccc3C2)C(=O)c2cc(Nc3ccnnc3)ccc21` (centres unmarked) [Compound 44, 4-(3-(3,4-dihydroisoquinolin-2(1H)-yl)-2-hydroxypropyl)-1-methyl-7-(pyridazin-4-ylamino)-3,4-dihydro-1H-benzo[e][1,4]diazepine-2,5-dione], the pIC50 was 8.16.

`CC(=O)N1CCC(Nc2cc3c(cc2F)OCCN(C[C@H](O)CN2CCc4ccccc4C2)C3=O)CC1` [Compound 17a, (R)-7-((1-acetylpiperidin-4-yl)amino)-4-(3-(3,4-dihydroisoquinolin-2(1H)-yl)-2-hydroxypropyl)-8-fluoro-3,4-dihydrobenzo[f][1,4]oxazepin-5(2H)-one]: the pIC50 was 6.61.

On to `O=C1c2cc(Nc3ccnnc3)ccc2OCCN1CC(O)CN1CCc2ccccc2C1` (racemic) [Compound 30, 4-(3-(3,4-dihydroisoquinolin-2(1H)-yl)-2-hydroxypropyl)-7-(pyridazin-4-ylamino)-3,4-dihydrobenzo[f][1,4]oxazepin-5(2H)-one], for which the negative logarithm of the IC50 (pIC50) is 7.89.

Turning to `CC(=O)N1C2CCC1CC(Nc1ccc3c(c1)C(=O)N(CC(O)CN1CCc4ccccc4C1)CCO3)C2` (centres unmarked) [Compound 55, 7-((8-acetyl-8-azabicyclo[3.2.1]octan-3-yl)amino)-4-(3-(3,4-dihydroisoquinolin-2(1H)-yl)-2-hydroxypropyl)-3,4-dihydrobenzo[f][1,4]oxazepin-5(2H)-one], the negative-log IC50 (pIC50) is 6.71.

In the case of `O=c1c2cc(Nc3ccnnc3)ccc2cnn1CC(O)CN1CCc2ccccc2C1` (centres unmarked) [Compound 33, 2-(3-(3,4-dihydroisoquinolin-2(1H)-yl)-2-hydroxypropyl)-7-(pyridazin-4-ylamino)phthalazin-1(2H)-one], the negative-log IC50 (pIC50) was 7.65.

Consider `O=C1c2cc(Nc3ccnnc3)c(F)cc2OCCN1CC(O)CN1CCc2ccccc2C1` (centres unmarked) [Compound 50, 4-(3-(3,4-dihydroisoquinolin-2(1H)-yl)-2-hydroxypropyl)-8-fluoro-7-(pyridazin-4-ylamino)-3,4-dihydrobenzo[f][1,4]oxazepin-5(2H)-one], for which the pIC50 was 8.11.

`O=C1c2nc(Nc3ccnnc3)ccc2OCCN1CC(O)CN1CCc2ccccc2C1` (centres unmarked) [Compound 49, 4-(3-(3,4-dihydroisoquinolin-2(1H)-yl)-2-hydroxypropyl)-7-(pyridazin-4-ylamino)-3,4-dihydropyrido[2,3-f][1,4]oxazepin-5(2H)-one]: the pIC50 is 6.16.

On to `O=C1c2cc(NC3COC3)ccc2OCCN1CC(O)CN1CCc2ccccc2C1` (centres unmarked) [Compound 5, 4-(3-(3,4-dihydroisoquinolin-2(1H)-yl)-2-hydroxypropyl)-7-(oxetan-3-ylamino)-3,4-dihydrobenzo[f][1,4]oxazepin-5(2H)-one], for which the negative-log IC50 (pIC50) is 6.88.

For `CC(=O)N1CCC(Nc2cnc3c(c2)C(=O)N(CC(O)CN2CCc4ccccc4C2)CC3)CC1` (centres unmarked) [Compound 19, 3-((1-acetylpiperidin-4-yl)amino)-6-(3-(3,4-dihydroisoquinolin-2(1H)-yl)-2-hydroxypropyl)-7,8-dihydro-1,6-naphthyridin-5(6H)-one], the negative logarithm of the IC50 (pIC50) is 6.21.

`O=C1c2cc(Nc3cnccn3)ccc2OCCN1C[C@H](O)CN1CCc2ccccc2C1` [Compound 38, (R)-4-(3-(3,4-dihydroisoquinolin-2(1H)-yl)-2-hydroxypropyl)-7-(pyrazin-2-ylamino)-3,4-dihydrobenzo[f][1,4]oxazepin-5(2H)-one]: the negative logarithm of the IC50 (pIC50) is 7.87.

On to `Cn1ccc(Nc2ccc3c(c2)C(=O)N(CC(O)CN2CCc4ccccc4C2)CC3)cc1=O` (centres unmarked) [Compound 27, 2-(3-(3,4-dihydroisoquinolin-2(1H)-yl)-2-hydroxypropyl)-7-((1-methyl-2-oxo-1,2-dihydropyridin-4-yl)amino)-3,4-dihydroisoquinolin-1(2H)-one], for which the pIC50 was 7.68.

For the compound `Cn1nccc1Nc1ccc2c(c1)C(=O)N(C[C@H](O)CN1CCc3ccccc3C1)CCO2` [Compound 41, (R)-4-(3-(3,4-dihydroisoquinolin-2(1H)-yl)-2-hydroxypropyl)-7-((1-methyl-1H-pyrazol-5-yl)amino)-3,4-dihydrobenzo[f][1,4]oxazepin-5(2H)-one], the pIC50 was 8.00.

On to `CC(=O)N1CCC(Nc2cc3c(cc2F)OCCN(C[C@@H](O)CN2CCc4ccccc4C2)C3=O)CC1` [Compound 17b, (S)-7-((1-acetylpiperidin-4-yl)amino)-4-(3-(3,4-dihydroisoquinolin-2(1H)-yl)-2-hydroxypropyl)-8-fluoro-3,4-dihydrobenzo[f][1,4]oxazepin-5(2H)-one], for which the negative-log IC50 (pIC50) is 6.14.

Regarding `O=C1c2cc(NC3COC3)ccc2CCN1CC(O)CN1CCc2ccccc2C1` (centres unmarked) [Compound 1, 2-(3-(3,4-dihydroisoquinolin-2(1H)-yl)-2-hydroxypropyl)-7-(oxetan-3-ylamino)-3,4-dihydroisoquinolin-1(2H)-one], the pIC50 was 7.01.

`CC(=O)N1CCC(Nc2ccc3c(c2)C(=O)N(C[C@H](O)CN2CCc4ccccc4C2)C2CC3C2)CC1` [Compound 57a, (R)-8-((1-acetylpiperidin-4-yl)amino)-2-(3-(3,4-dihydroisoquinolin-2(1H)-yl)-2-hydroxypropyl)-2,3,4,5-tetrahydro-1H-3,5-methanobenzo[c]azepin-1-one]: the negative-log IC50 (pIC50) is 7.03.

`O=C1c2cc(Nc3ccnnc3)ncc2OCCN1CC(O)CN1CCc2ccccc2C1` (centres unmarked) [Compound 48, 4-(3-(3,4-dihydroisoquinolin-2(1H)-yl)-2-hydroxypropyl)-7-(pyridazin-4-ylamino)-3,4-dihydropyrido[4,3-f][1,4]oxazepin-5(2H)-one]: the negative-log IC50 (pIC50) was 7.80.
